Laboratory results published in paper PMC12720774, “Detergents alter the stability and lipid binding properties of the CD1d immunoreceptor” (Protein Science : A Publication of the Protein Society, 2025).
Several values for one entry are separate records, joined by “and”; a condition that tells them apart may be missing. Equal values may be shown once. Read-outs that look alike come from different tables or passages of the source.

Experiments:
AF647‐labeled hCD1d = target: T1, AF647‐labeled hCD1d (Homo sapiens, UniProt P15813+P61769); experiment: Microscale thermophoresis (MST) binding assay
T1 construct: TEV protease cleavage site ENLYFQS (C); BirA biotinylation site (C); His7 (C); made in house; host or cells: TurboCHO cells (GenScript)
Description: The experimental limitations of ITF, such as low instrument sensitivity, high sample consumption, signal overlap with some ligands, and low throughput (Fossum et al., [2023]), made it necessary to employ alternative, complementary assays to quantify detergent binding to hCD1d. […] MST measures the diffusion of fluorescent molecules in response to microscopic temperature gradients (Seidel et al., [2013]). When a protein forms a complex with a ligand, changes in hydrodynamic properties, charge, or solvation energy alter its thermophoretic behavior, allowing detection of binding events. To perform MST experiments, Alexa Fluor 647 (AF647) dye was covalently attached to the primary amines of hCD1d via standard N‐hydroxysuccinimide coupling chemistry (Anderson et al., [1964]). The concentration of AF647‐hCD1d was kept constant, and the change in MST signal was measured as a function of increasing detergent concentration (Figure S3). Like ITF, any lipid or detergent that destabilizes CD1 can also alter the MST signal since unfolding changes the protein's Stokes radius and its thermophoretic behavior. […] This is why we compare MST results with ITF and nanoDSF, as described below.
For MST, hCD1d was fluorescently labeled with AF647‐NHS Ester (Invitrogen #A20006). Briefly, a 10 mM stock of AF647‐NHS was prepared in anhydrous DMSO. Then, 100 μL of 50 μM hCD1d in 1X PBS pH 7.4 was mixed with 1 μL of 10 mM AF647‐NHS (1:2 molar ratio of protein: dye). The mixture was allowed to react for 1 h in the dark at 25°C. Unreacted dye was removed from the protein–dye conjugate by performing size exclusion chromatography in the dark with a Superdex 200 Increase 10/300 GL column at a flow rate of 0.5 mL/min in SEC buffer (100 mM NaCl, 20 mM sodium phosphate, pH 7.2). The degree of labeling was determined by a NanoDrop spectrophotometer at A647 nm (dye absorbance) and A280 nm (hCD1d absorbance). The degree of labeling was determined from the ratio of dye concentration to protein concentration. The degree of labeling was ~75%.
MST experiments were performed using a Monolith NT.115 instrument (NanoTemper Technologies) using Monolith standard capillaries and the red excitation laser setup. The following settings were applied for all MST experiments: excitation power: 30%–50%, MST power: medium, before MST time: 3 s, MST on time (IR laser): 20 seconds, and after MST time: 1 s. MST measurements were analyzed using the Monolith Affinity Analysis software v2.3 and exported for plotting in GraphPad Prism v10.1. Three replicates were performed, and data are presented as the mean ± standard deviation (n = 3).
MST measurements of 100 nM AF647‐hCD1d were acquired in the absence and presence of detergents in 1X PBS pH 7.4 at 25°C. Prior to data acquisition, hCD1d and detergent or lipid samples were incubated at 37°C overnight (~12 h) to simulate in vitro and in vivo loading conditions. […] For 18:1 LPC experiments: MST data of 100 nM AF647‐hCD1d were acquired in the absence and presence of 18:1 LPC in 1X PBS pH 7.4 at 25°C.

CD1d = system: CD1d; parameters: method as in Paletta et al., 2015; settings: ref Paletta et al., 2015; cited from earlier work
[1] = approximate; ref Sigma Aldrich catalogue; cited from earlier work

T1 sequence (P61769+P15813 fused): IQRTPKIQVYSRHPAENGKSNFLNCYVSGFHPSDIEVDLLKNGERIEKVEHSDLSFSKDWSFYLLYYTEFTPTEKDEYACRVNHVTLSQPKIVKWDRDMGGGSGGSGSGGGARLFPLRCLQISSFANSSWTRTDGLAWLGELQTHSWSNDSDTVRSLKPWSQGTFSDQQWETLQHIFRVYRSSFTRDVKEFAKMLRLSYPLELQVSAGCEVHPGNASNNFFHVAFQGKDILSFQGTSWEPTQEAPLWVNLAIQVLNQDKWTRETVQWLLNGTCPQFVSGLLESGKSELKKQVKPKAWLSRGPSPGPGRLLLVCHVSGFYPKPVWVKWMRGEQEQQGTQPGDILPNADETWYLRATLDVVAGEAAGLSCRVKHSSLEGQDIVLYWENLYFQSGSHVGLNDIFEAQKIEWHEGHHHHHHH

Fnorm (rep 1-3) (AF647‐labeled hCD1d; 3.05176e-8 M detergent): 791.032 ‰ and 791.82 ‰ and 793.917 ‰ | Fnorm (rep 1-3) (AF647‐labeled hCD1d; 6.10352e-8 M detergent): 788.237 ‰ and 790.225 ‰ and 792.188 ‰ | Fnorm (rep 1-3) (AF647‐labeled hCD1d; 1.2207e-7 M detergent): 789.186 ‰ and 789.645 ‰ and 792.672 ‰ | Fnorm (rep 1-3) (AF647‐labeled hCD1d; 2.44141e-7 M detergent): 789.349 ‰ and 791.297 ‰ and 791.601 ‰ | Fnorm (rep 1-3) (AF647‐labeled hCD1d; 4.88281e-7 M detergent): 793.87 ‰ and 796.123 ‰ and 800.037 ‰ | Fnorm (rep 1-3) (AF647‐labeled hCD1d; 9.76563e-7 M detergent): 794.535 ‰ and 800.785 ‰ and 799.868 ‰ | Fnorm (rep 1-3) (AF647‐labeled hCD1d; 1.95313e-6 M detergent): 799.667 ‰ and 802.675 ‰ and 807.47 ‰ | Fnorm (rep 1-3) (AF647‐labeled hCD1d; 3.90625e-6 M detergent): 800.165 ‰ and 807.424 ‰ and 808.195 ‰ | Fnorm (rep 1-3) (AF647‐labeled hCD1d; 7.8125e-6 M detergent): 803.847 ‰ and 808.251 ‰ and 810.421 ‰ | Fnorm (rep 1-3) (AF647‐labeled hCD1d; 1.5625e-5 M detergent): 804.661 ‰ and 807.958 ‰ and 808.866 ‰ | Fnorm (rep 1-3) (AF647‐labeled hCD1d; 3.125e-5 M detergent): 803.048 ‰ and 809.197 ‰ and 809.196 ‰ | Fnorm (rep 1-3) (AF647‐labeled hCD1d; 6.25e-5 M detergent): 803.488 ‰ and 807.296 ‰ and 810.346 ‰ | Fnorm (rep 1-3) (AF647‐labeled hCD1d; 0.000125 M detergent): 802.129 ‰ and 807.585 ‰ and 809.032 ‰ | Fnorm (rep 1-3) (AF647‐labeled hCD1d; 0.00025 M detergent): 803.446 ‰ and 808.163 ‰ and 808.584 ‰ | Fnorm (rep 1-3) (AF647‐labeled hCD1d; 0.0005 M detergent): 803.236 ‰ and 807.226 ‰ and 808.719 ‰ | Fnorm (rep 1-3) (AF647‐labeled hCD1d; 0.001 M detergent, 100 nM AF647‐hCD1d): 804.928 ‰ and 807.69 ‰ and 809.093 ‰ | Kd (AF647‐labeled hCD1d; Figure 5B, detergent binding to hCD1d, read-out: MST - Kd (uM) average): 0.96 µM | Kd (AF647‐labeled hCD1d; detergent with 100 nM AF647‐labeled hCD1d, 25°C, apparent, read-out: K D (MST)): 0.9 ± 0.2 µM
Substance: Tyloxapol
efficiency of loading α‐GalCer analogues onto CD1d (in words) (CD1d): more efficient than Tween 20 and Triton X‐100 | CMC [1]: 18 µM
